The values that follow come from US8323971B2, “Differentiation of pluripotent cells into primary germ layer progenitors” (Cambridge Enterprise Limited, priority 2006, dated 2012).

What all share (format): cell-based, human
Assay [1] relates to hESCs. In words: Quantitation of β-tubulin III positive cells in monolayer differentiation. The settings on record: Lefty expressing hESCs, feeder free monolayer, CDM; FGF 12 ng/ml, Noggin 200 ng/ml, SU5402 20 μM. The protocol: In some experiments, Wildtype and Lefty expressing hESCs were grown on fibronectin in FGF (12 ng/ml)/Activin (20 ng/ml) as a monolayer in the absence of a feeder layer (Vallier et al., 2005). When cells were 70-80% confluent medium was changed to either CDM only, CDM/FGF (12 ng/ml), CDM/Noggin 200 ng/ml, CDM/SU5402 and differentiated for 24 days.
To quantify the neurogenic potential of Lefty expressing hESCs, we cultured Lefty expressing hESCs in feeder-free conditions as a monolayer in CDM supplemented with Activin and FGF as described previously (Vallier et al., 2005). When cells reached 70-80% confluency, medium was changed to CDM only, CDM plus FGF (12 ng/ml) (CDM/FGF), CDM plus the BMP inhibitor Noggin (200 ng/ml) ([…]) (CDM/SU5402), and cells were cultured in these conditions for 24 days
The incidence of neural differentiation was determined by counting the number of β-tubulin III positive cells in random fields.

The next assay deals with H9 hESCs. In words: Screening of culture conditions by immunostaining for Oct4, Sox2, Brachyury, Sox17. The settings on record: for rescue of Oct4 expression under SB431542: added with SB431542. The protocol: Table 2 and Table 3 show the screening of culture conditions for inducing mesoendoderm differentiation into CDM. H9 hESCs were grown for 7 days or more in CDM-BSA or CDM-PVA supplemented with different growth factors (Activin, BMP4, FGF2) or inhibitors (SU5402 for FGF, SB431542 for Activin/Nodal/TGFβ, BIO for βCatenin). Then, immunostaining analysis were used to determine the fractions of cells expressing the pluripotent marker Oct-4, neuroectoderm marker Sox2, the mesoderm marker Brachyury, and the endoderm marker Sox17. The quantities of expressing cells were divided into five arbitrary categories. 0 for absence of expression, VL for expressing cells <1%, L for expressing cells <5%, H for expressing cells >10%, VH for expressing cells >50%. IN red are indicated the conditions allowing the generation of mesendoderm cells expressing Brachyury or Sox17.
HESCs or differentiated progenitors were fixed for 20 minutes at 4° C. in 4% paraformaldehyde (PFA) and then washed three times in PBS. Cells were incubated for 20 minutes at room temperature in PBS containing 10% goat serum (Serotec) and subsequently incubated over night at 4° C. with primary antibody diluted in 1% goat serum in PBS as follows: SSEA-3 (1:100, Santa Cruz), SSAE-1 (1:25), Tra-1-60 (1:100, Santa CruZ), Oct-4 (1:100, Abcam ab18976 or SantaCruz), Sox2 (1:100, Abcam ab15830), Alkaline Phophatase (1:50, Abcam ab17989), Brachyury (1:100, Abcam ab20680 or RandD systems), Sox17 (RandD systems), FoxA2 (1:50, Abcam ab5074), GATA4 (1:250, Santa CruZ), GATA6 (1:200, Abcam ab22600 or Santa Cruz), Vent-2 (1:100, Abcam ab20913), Goosecoid (1:25, Abcam ab21059), Wnt3A (1:100, Abcam ab19925), CXCR4 (1:100, RanD Systems or Pharmingen). Nestin (1:200, Abcam ab5968), NCAM (1:100, Abcam ab8077), GFAP (ZZ), Neurofilament (ZZ), βIII Tubulin (ZZ), Glutamate (ZZ), N-Cadherin (1:100, Abcam ab18203 or ZZ). Cells were then washed three times in PBS and incubated with fluorescein-Isothiocyanate-conjugated anti-mouse IgG or IgM (Sigma 1:200 in 1% goat serum in PBS) or rat IgM (Jackson laboratory 1:300 in goat serum in PBS) or rabbit IgG (Jackson laboratory 1:200 in donkey serum in PBS) for two hours at room temperature. Unbound secondary antibody was removed by 3 washes in PBS. Hoechst 33258 was added to the first wash (Sigma 1:10000).
We then developed a method for inducing differentiation of hESCs into the three primary germ layers. Culture conditions inductive for mesoderm, endoderm and neuroectoderm were screened using an approach based on immunostaining analyses for the expression of proteins specifically expressed by pluripotent cells (Oct-4), neuroectoderm progenitors (Sox2 in absence of Oct4), endoderm progenitors (Sox17) and mesoderm progenitors (Brachyury). In summary, hESCs grown in CDM (CDM-BSA or hu-CDM) were plated on fibronectin in CDM-BSA/AF or CDM-PVA/AF. Then cocktails of growth factors (BMP4, FGF2, Activin) or chemical inhibitors (SU5402, SB431542) were added at different times and for different periods. After 7 to 10 days treatment, cells were fixed and then the expression of Oct-4/Sox2, Sox17 and Brachyury was analysed using immunostaining. The effect of three growth factors on the differentiation of hESCs into the primary germ layers was systematically analysed in our screen. We also studied the function of FGF and Activin signalling pathways in the maintenance of the pluripotent state by analysing the effect of the SU5402, a chemical inhibitor of FGF receptors, and the SB431542, a chemical inhibitor of Activin/TGFβ receptors.

Another assay concerns hESC derived EBs. In words: Real time qPCR / RT-PCR of neuroectoderm and pluripotency markers in EBs. Here is the method:
Four independent batches of WT and Lefty EBs were used for this analysis.
Five independent batches of DMSO- and SB431542-treated EBs were used for this analysis.
Lefty or Cerb-S expressing hESCs (as well as wildtype H9 and hSF-6 hESCs) were grown in 6 cm dishes (Corning), on mouse feeders. When confluent, hESCs were passaged using collagenase 1 mg/ml, as previously described (Schatten et al., 2005) and cultured in non-adherent conditions in CDM supplemented with either SU5402 (Calbiochem; 10 μM), SB431542 (Tocris; 20 μM), FGF-2 (R&D Systems; 12 ng/ml) or Noggin 200 ng/ml.
For some RT-PCR experiments, 50-100 ng of RNA were used for each RT-PCR reaction, using the OneStep RT-PCR kit according to manufacturer instructions. For real-time PCR, 1 μg RNA was reverse-transcribed using the Qiagen QuantiTect Reverse Transcription kit. 1/20-1/40 of each cDNA reaction was used for each real-time PCR reaction using the QuantiTect SYBR Green PCR Kit (Qiagen) according to manufacturer instructions. Relative quantification of gene expression was done by normalising the detected levels of gene of interest mRNA to those of the house-keeping GAPDH gene. All primers were purchased from Qiagen, with the exception of Xenopus Cerb-S: Forward 5′-[…]-3′ (SEQ ID NO: 1); Reverse 5′-ATGGTGCAGGGTAG TAGATG-3′ (SEQ ID NO: 2). Mouse Lefty2: Forward 5^r-[…]-3′ (SEQ ID NO: 3); Reverse 5′-[…]-3′ (SEQ ID NO: 4).
A general note: In qPCR the cycle at which signal appears reflects the starting amount.

Assay [2] relates to hESCs. The experiment in a line: FACs fraction of cells expressing CXCR4 or PDGFR after mesendoderm induction in CDM PVA. The note with it: Activin 100 ng/ml at third step with BMP4 and FGF2, CDM-PVA. Here is the method:
Fraction of cells expressing CXCR4 or PDGFa was determined using FACs after the third day in CDM+BMP+FGF+Activin.
hESCs grown in Feeder free and serum free conditions were harvested using 5 mg/ml collagenase IV then plated into plates pre-coated with fibronectin. hESCs were grown for 48 hours in CDM supplemented with Activin (10 ng/ml, RandD systems) and FGF2 (12 ng/ml, RandD systems). To induce extra-embryonic differentiation, hESCs were grown for 5 additional days in CDM supplemented with BMP4 (10 ng/ml, RandD systems). To obtain neuroectoderm progenitors, hESCs were grown in CDM or in CDM-PVA in the presence of SB431542 (10 μM Tocris) and FGF2 (12 ng/ml, RandD systems) for 7 additional days. The resulting cells were grown in non-adherent conditions for 10 days and then plated back for 5 additional days in CDM to obtain fully differentiated neuronal cells. To obtain mesendoderm precursors, hESCs were grown for 3 additional days in CDM-PVA in the presence of SU5402 (10 μM, Calbiochem) and Activin (5 ng/ml, RandD systems). […]
For detection of Tra-1-60, SSEA-3, N-CAM, CXCR4 and PDGFαRecptor adherent cells were washed twice in PBS then incubated for 20 minutes at 37 C in cell dissociation buffer (Invitrogen). […] Live cells identified by 7-AAD exclusion were analyzed for surface-marker expression using FACSCalibur.

In the case of `Cc1c[nH]c(C=C2C(=O)Nc3ccccc32)c1CCC(=O)O` [SU5402, 3-[3-(2-Carboxyethyl)-4-methylpyrrol-2-methylidenyl]-2-indolinone, reference compound], the “number of β-tubulin III positive cells compared to controls” value (shortened to “number … compared to controls”) with hESCs [1] is given as “significant reduction”.
As to `O=C1Nc2cc(Br)ccc2/C1=C1/Nc2ccccc2/C1=N\O` [BIO, reference compound], the “rescue of Oct4 expression under SB431542” value in the assay with H9 hESCs is recorded as “not sufficient to rescue the expression of Oct4”.
Take `NC(=O)c1ccc(-c2nc(-c3ccc4c(c3)OCO4)c(-c3ccccn3)[nH]2)cc1` [SB431542, 4-(5-Benzol[1,3]dioxol-5-yl-4-pyrldin-2-yl-1H-imidazol-2-yl)-benzamide hydrate]: the “cells expressing the mesendoderm markers Bra, Sox17, FoxA2, and αFP” value with H9 hESCs (in the presence of SB431542) is “never observed”. Moreover, in the assay with hESC derived EBs (20 μM, EBs cultured 14-16 days, vs DMSO), the “Nestin, Sox3, and NGN2 expression (real time qPCR)” value is “average increase”. Besides, the “pluripotency marker Oct4 (RT-PCR time course)” value with hESC derived EBs (EBs harvested every 4 days over 16 days, compared to controls) is reported as “rapid down-regulation”. Besides, in the assay on hESC derived EBs (EBs in CDM 14-16 days, vs DMSO), the “Sox1 expression levels (real time qPCR)” value is listed as “not a significant increase”.
For the molecule FGF2: human fibroblast growth factor 2, in the assay on hESCs [1], the “number … compared to controls” value is “did not show a significant increase”. The “rescue of Oct4 expression under SB431542” value in the assay on H9 hESCs was “not sufficient to rescue the expression of Oct4”.

B1: Activin: dimeric polypeptide stimulating the Activin/Nodal pathway (protein, UniProt P08476 311-426, looked up)
Inhibin beta A chain: GLECDGKVNICCKKQFFVSFKDIGWNDWIIAPSGYHANYCEGECPSHIAGTSGSSLSFHSTVINHYRMRGHSPFANLKSCCVPTKLRPMSMLYYDDGQNIIKKDIQNMIVEECGCS
modifications: Inhibin beta A chain
For the molecule B1, in the assay on hESCs [2], the “fraction of cells expressing CXCR4” value worked out at 70% and the “fraction of cells expressing PDGFR” value is recorded as 7%. Besides, the “expression of neuroectoderm markers Sox1, Sox3, Nestin and NGN2” value in the assay on hESC derived EBs (addition to EB cultures) was “decreasing expression”.

B2: Noggin: the BMP inhibitor Noggin (protein, UniProt Q13253 28-232, looked up)
Noggin: QHYLHIRPAPSDNLPLVDLIEHPDPIFDPKEKDLNETLLRSLLGGHYDPGFMATSPPEDRPGGGGGAAGGAEDLAELDQLLRQRPSGAMPSEIKGLEFSEGLAQGKKQRLSKKLRRKLQMWLWSQTFCPVLYAWNDLGSRFWPRYVKVGSCFSKRSCSVPEGMVCKPSKSVHLTVLRWRCQRRGGQRCGWIPIQYPIISECKCSC
Take B2: in the assay with hESCs [1], the “number … compared to controls” value is recorded as “significant increase”.
